Reference: patent publication US11564394B2, “Distorted gold (I)-phosphine complexes and methods for use as antifungal agents” (University of Kentucky Research Foundation, priority 2019, dated 2023)
Converted amounts (≈) assume the structure as drawn. “And” between values parts separate entries of the source, which are not always exact repeats. Equal entries are not always repeated.

Assays:
[1] = tested on: C. albicans ATCC MYA-2310(S) (strain D); assay: MIC determination (broth microdilution); format: cell-based, Candida albicans; settings: strain D = C. albicans ATCC MYA-2310(S); MIC-0; 48 h; listed as printed beside letter E
[2] = tested on: C. albicans ATCC 90819(R) (strain G); format: cell-based, Candida albicans; settings: strain G = C. albicans ATCC 90819(R); MIC-0; 48 h; listed as printed without letter, below G
[3] = tested on: C. neoformans ATCC MYA-85 (strain M); assay: MIC determination (broth microdilution); format: cell-based, Cryptococcus neoformans; settings: strain M = C. neoformans ATCC MYA-85; MIC-0; 72 h at 35° C.
[4] = tested on: C. glabrata ATCC 2001 (strain H) biofilm; assay: Prevention of biofilm formation (XTT); format: cell-based, Candida glabrata; settings: treated at 0 h
[5] = tested on: C. neoformans CN3 (strain P); assay: MIC determination (broth microdilution); format: cell-based, Cryptococcus neoformans; settings: MIC-0, 72 h at 35° C.
[6] = tested on: A. flavus ATCC MYA-3631 (strain S); assay: MIC determination (broth microdilution); format: cell-based, Aspergillus flavus; settings: strain S = A. flavus ATCC MYA-3631; MIC-0; 72 h at 35° C.
HEK-293 = assay: Mammalian cytotoxicity assay (resazurin cell viability); format: cell-based; settings: HEK-293 (human embryonic kidney); read-out: IC50 for mammalian cell lines
Text: (§1) For cytotoxicity assays, the human embryonic kidney cell line (HEK-293) was purchased from the ATCC. The human bronchial epithelial cell line (BEAS-2B), the human lung carcinoma cell line (A549), and the mouse macrophage cell line (J774A.1) were generous gifts from Prof. David K. Orren (University of Kentucky, Lexington, Ky.), Prof. Markos Leggas (University of Kentucky, Lexington, Ky.), and Prof. David J. Feola (University of Kentucky, Lexington, Ky.), respectively. A549, HEK-293, and BEAS-2B cells were cultured in Dulbecco's Modified Eagle's Medium (DMEM, catalog #VWRL0100, VWR, Chicago, Ill.) supplemented with 10% fetal bovine serum (FBS; from ATCC) and 1% penicillin/streptomycin (from ATCC) at 37° C. with 5% CO2. The J774A.1 cells were cultured in DMEM (catalog #30-2002, ATCC, Manassas, Va.), which was also supplemented with FBS and antibiotics and grown at 37° C. with 5% CO2.
(§2) To examine whether the compounds are safe for human cells, cytotoxicity assays were done against four mammalian cell lines: HEK-293, A549, BEAS-2B, and J774A.1 cells. […] HEK-293 and J774A.1 cells were plated at 1×10^4 cells/mL while A549 and BEAS-2B were plated at 3×10^3 cells/mL. Compounds were tested in concentrations ranging from 0.06 to 15.6 μg/mL with final concentration of DMSO at 0.5% (FIG. 4A-D).

BEAS-2B = assay: as above; format: cell-based; settings: BEAS-2B (human bronchial epithelial); read-out: IC50 for mammalian cell lines
Text: as §1, §2

A549 = assay: as above; format: cell-based; settings: A549 (human lung carcinoma); read-out: IC50 for mammalian cell lines
Text: as §1, §2

J774A.1 = assay: as above; format: cell-based; settings: J774A.1 (murine macrophage); read-out: IC50 for mammalian cell lines
Text: as §1, §2

[7] = tested on: C. neoformans CN1 (strain N); assay: MIC determination (broth microdilution); format: cell-based, Cryptococcus neoformans; settings: MIC-0, 72 h at 35° C.
[8] = tested on: C. auris AR Bank # 0384 (strain K); assay: MIC determination (broth microdilution); format: cell-based, Candida auris; settings: strain K = C. auris AR Bank # 0384; MIC-0; 48 h (CAS read at 24 h); Table 1; also in Table 2
[9] = tested on: C. albicans ATCC 64124(R) (strain F); format: cell-based, Candida albicans; settings: strain F = C. albicans ATCC 64124(R); MIC-0; 48 h; listed as printed beside letter G
[10] = tested on: C. auris AR Bank # 0386 (strain V); assay: MIC determination (broth microdilution); format: cell-based, Candida auris; settings: strain V = C. auris AR Bank # 0386; MIC-0; 48 h (CAS read at 24 h)
[11] = tested on: C. parapsilosis ATCC 22019 (strain J); assay: MIC determination (broth microdilution); format: cell-based; settings: strain J = C. parapsilosis ATCC 22019; MIC-0; 48 h; listed as printed beside letter K
[12] = tested on: C. auris AR Bank # 0390 (strain L); assay: MIC determination (broth microdilution); format: cell-based, Candida auris; settings: strain L = C. auris AR Bank # 0390; MIC-0; 48 h (CAS read at 24 h); Table 1 row printed without letter, below L; also in Table 2
[13] = tested on: C. auris AR Bank # 0390 (strain L) pre-formed biofilm; format: cell-based, Candida auris; settings: biofilm treated at 24 h, XTT
[14] = tested on: C. albicans ATCC MYA-2876(S) (strain E); assay: MIC determination (broth microdilution); format: cell-based, Candida albicans; settings: strain E = C. albicans ATCC MYA-2876(S); MIC-0; 48 h; listed as printed beside letter F
[15] = tested on: C. glabrata ATCC 2001 (strain H); assay: MIC determination (broth microdilution); format: cell-based, Candida glabrata; settings: strain H = C. glabrata ATCC 2001; MIC-0; 48 h at 35° C.
[16] = tested on: fungal strains (Candida spp., Cryptococcus spp., Aspergillus spp., Fusarium spp.); assay: MIC determination, summary statements over the strain panel; format: cell-based; settings: for overall assessment as antifungals: panel of twenty fungal strains (Table 1)
[17] = tested on: A. nidulans ATCC 38163 (strain Q); assay: MIC determination (broth microdilution); format: cell-based, Aspergillus nidulans; settings: strain Q = A. nidulans ATCC 38163; MIC-0; 72 h at 35° C.

Compound	MIC [1]	MIC (in parentheses) [1]	MIC [2]	MIC (in parentheses) [2]	MIC [3]	MIC (in parentheses) [3]	Biofilm prevention SMIC90 [4]	MIC [5]	MIC (in parentheses) [5]	MIC [6]	MIC (in parentheses) [6]	MIC [7]	MIC (in parentheses) [7]	MIC [8]	MIC (in parentheses) [8]	MIC [9]	MIC (in parentheses) [9]	MIC [11]	MIC (in parentheses) [11]	MIC [12]	also measured
bis-[1,2-bis[(2S,5S)-2,5-dimethylphospholano]benzene]gold(I) [Compound 4]	0.98 µg/mL	1.2 µM	0.98 µg/mL	1.2 µM	0.98 µg/mL	1.2 µM	3.9 µg/mL	0.98 µg/mL	1.2 µM	7.8 µg/mL	9.2 µM	0.98 µg/mL	1.2 µM	3.9 µg/mL and 3.96 µg/mL	4.6 µM	0.98 µg/mL	1.2 µM	0.98 µg/mL	1.2 µM	7.8 µg/mL	IC50 (HEK-293): 1900 ± 700 nM; IC50 (BEAS-2B): 2000 ± 300 nM; IC50 (A549): 4500 nM; IC50 (J774A.1): 1500 ± 100 nM; MIC [10]: 1.95 µg/mL; MIC (in parentheses) [10]: 2.3 µM; MIC (in parentheses) [12]: 9.2 µM; Pre-formed biofilm SMIC90 [13]: 15.6 µg/mL; MIC [14]: 0.98 µg/mL; MIC (in parentheses) [14]: 1.2 µM; MIC [15]: 1.95 µg/mL; MIC (in parentheses) [15]: 2.3 µM; overall assessment as antifungals [16]: great promise; antifungal activity class ([16]; two C. auris strains (K and L)): good (MIC = 3.9-7.8 μg/mL (good antifungal activity)); MIC [17]: 3.9 µg/mL; MIC (in parentheses) [17]: 4.6 µM
CC(=O)OC[C@H]1O[C@@H]([S-])[C@H](OC(C)=O)[C@@H](OC(C)=O)[C@@H]1OC(C)=O.CCP(CC)CC.[Au+] [Auranofin, auranofin, reference compound]	> 31.3 µg/mL	> 46.1 µM	> 31.3 µg/mL	> 46.1 µM	≤ 0.06 µg/mL	≤ 0.1 µM	31.3 µg/mL	3.9 µg/mL	5.7 µM	> 31.3 µg/mL	> 46.1 µM	3.9 µg/mL	5.7 µM	> 31.3 µg/mL	> 46.1 µM	> 31.3 µg/mL	> 46.1 µM	> 31.3 µg/mL	> 46.1 µM	> 31.3 µg/mL	IC50 (HEK-293): 3000 ± 200 nM; IC50 (BEAS-2B): 1300 ± 100 nM; IC50 (A549): 500 ± 100 nM; IC50 (J774A.1): 16200 nM; MIC (in parentheses) [12]: > 46.1 µM; Pre-formed biofilm SMIC90 [13]: >31.3 µg/mL; MIC [14]: > 31.3 µg/mL; MIC (in parentheses) [14]: > 46.1 µM; MIC [15]: > 31.3 µg/mL; MIC (in parentheses) [15]: > 46.1 µM; MIC ([16]; Candida spp.): > 31.3 µg/mL; antifungal activity ([16]; Candida spp.): no antifungal activity; antifungal activity class ([16]; Candida spp.): poor (MIC ≥15.6 μg/mL (poor antifungal activity)); MIC ([16]; two Aspergillus spp.): 3.9 µg/mL and 7.8 µg/mL; antifungal activity class ([16]; two Aspergillus spp.): good (MIC = 3.9-7.8 μg/mL (good antifungal activity)); MIC [17]: 3.9 µg/mL; MIC (in parentheses) [17]: 5.7 µM
C[C@@H]1[C@H](O)[C@@H](C)/C=C/C=C/C=C/C=C/C=C/C=C/C=C/[C@H](O[C@@H]2O[C@H](C)[C@@H](O)[C@H](N)[C@@H]2O)C[C@@H]2O[C@](O)(C[C@@H](O)C[C@@H](O)[C@H](O)CC[C@@H](O)C[C@@H](O)CC(=O)O[C@H]1C)C[C@H](O)[C@H]2C(=O)O [AmB, amphotericin B, reference compound]	7.8 µg/mL (≈ 8.44 µM)	8.4 µM (≈ 7.76 µg/mL)	0.98 µg/mL (≈ 1.06 µM)	1.1 µM (≈ 1.02 µg/mL)	> 31.3 µg/mL	> 33.9 µM	0.98 µg/mL	0.98 µg/mL (≈ 1.06 µM)	1.1 µM (≈ 1.02 µg/mL)	31.3 µg/mL (≈ 33.9 µM)	33.8 µM (≈ 31.2 µg/mL)	0.98 µg/mL (≈ 1.06 µM)	1.1 µM (≈ 1.02 µg/mL)	1.95 µg/mL (≈ 2.11 µM)	2.1 µM (≈ 1.94 µg/mL)	3.9 µg/mL (≈ 4.22 µM)	4.2 µM (≈ 3.88 µg/mL)	3.9 µg/mL (≈ 4.22 µM)	4.2 µM (≈ 3.88 µg/mL)	1.95 µg/mL (≈ 2.11 µM)	MIC [10]: 1.95 µg/mL (≈ 2.11 µM); MIC (in parentheses) [10]: 2.1 µM (≈ 1.94 µg/mL); MIC (in parentheses) [12]: 2.1 µM (≈ 1.94 µg/mL); Pre-formed biofilm SMIC90 [13]: 7.8 µg/mL; MIC [14]: 3.9 µg/mL (≈ 4.22 µM); MIC (in parentheses) [14]: 4.2 µM (≈ 3.88 µg/mL); MIC [15]: 3.9 µg/mL (≈ 4.22 µM); MIC (in parentheses) [15]: 4.2 µM (≈ 3.88 µg/mL); MIC values (range) ([16]; all filamentous fungi, Aspergillus spp. and Fusarium spp.): 7.8 to 31.3 µg/mL
bis-[1,2-bis[(2R,5R)-2,5-dimethylfphospholano]benzene]gold(1) [Compound 6]	0.49 µg/mL	0.6 µM	0.49 µg/mL	0.6 µM	0.25 µg/mL	0.3 µM	1.95 µg/mL	0.49 µg/mL	0.6 µM	7.8 µg/mL	9.2 µM	0.49 µg/mL	0.6 µM	1.95 µg/mL	2.3 µM	0.49 µg/mL	0.6 µM	0.49 µg/mL	0.6 µM	1.95 µg/mL	IC50 (HEK-293): 5700 ± 500 nM; IC50 (BEAS-2B): 4900 ± 300 nM; IC50 (A549): 2500 ± 200 nM; IC50 (J774A.1): 1500 ± 100 nM; MIC [10]: 3.9 µg/mL; MIC (in parentheses) [10]: 4.6 µM; MIC (in parentheses) [12]: 2.3 µM; Pre-formed biofilm SMIC90 [13]: 7.8 µg/mL; MIC [14]: 0.49 µg/mL; MIC (in parentheses) [14]: 0.6 µM; MIC [15]: 0.98 µg/mL; MIC (in parentheses) [15]: 0.6 µM; overall assessment as antifungals [16]: great promise; MIC [17]: 3.9 µg/mL; MIC (in parentheses) [17]: 4.6 µM
